Assay results as given in patent US20090047365A1, “Novel Concomitant Use of Sulfonamide Compound with Anti-Cancer Agent” (Eisai R & D Management Co., Ltd., priority 2005, published 2009).

Key:
[1] = tested on: DNA-topoisomerase II mRNA; experiment: quantification of DNA-topoisomerase II mRNA by RT-PCR; assay type: cell-based, human; settings: HUVEC, 1 μM, six hours; untreated group 4.4 μg/ml
Procedure: 2×10^6 of human umbilical vein endothelial cells were seeded in a 25 cm^2 cell culture bottle and cultured in a CO2 incubator at 37° C. using a EGM-2 medium (Sanko Junyaku) overnight. On the following day, E7820 was added to give 1 μM. Six hours later, RNA was prepared from the cells. Specifically, the medium was removed from the cells. The cells were added with and dissolved in 3 ml of ISOGEN (Wako Pure Chemical Industries), added with an equal volume of CHCl3 and agitated. Then, the water phase was extracted. Half the amount of the water phase of isopropanol was added, left to stand for 5 minutes and centrifuged to collect the precipitate. The precipitate was washed with 70% ethanol, added with and dissolved in sterile water and absorbance at 260 nm was determined with a spectrophotometer to quantify the RNA amount.
Subsequently, TaqMan Gold RT-PCR kit (Applied Biosystems) was used to perform RT-PCR reaction. Specifically, 0.1 μg of RNA was added to 50 μl of the reaction solution, and subjected to reactions at 25° C. for 10 minutes, 48° C. for 30 minutes and 95° C. for 5 minutes to prepare cDNA. Then, a primer for determining DNA-topoisomerase II mRNA (ABI Taqman probe Hs00172214 ml) was used for PCR reaction and then ABI7700 (Applied Biosystems) was used for quantifying RNA amount.

[2] = tested on: HCT116 cells; experiment: DNA microarray analysis (Example 8), correlation coefficients and hierarchical cluster analysis; assay type: cell-based, human; settings: 24 hours treatment at twice the 50% growth inhibitory concentration, similarity among the compounds named together
Procedure: HCT116 cells were cultured in an RPMI-1640 medium supplemented with 10% fetal bovine serum, 100 units/ml penicillin and 100 μg/ml streptomycin. The following cultivation and compound treatment were carried out in an incubator at 5% CO2 and 37° C. HCT116 cells were seeded in 10 cm-diameter cell culture dishes at 2.0×10^6 cells/dish, cultured for 24 hours and subjected to the following compound treatment.
In this example, changes in the gene expression of HCT116 cells upon treatments with 12 compounds, i.e., E7820 (0.16 μM), E7070 (0.26 μM), LY186641 (59 μM), LY295501 (24 μM), LY-573636 (9.6 μM), CQS (4.0 μM), MST16 (100 μM), etoposide (3.6 μM), ethoxzolamide (410 μM), capsaicin (280 μM), trichostatin A (0.16 μM) and kenpaullone (7.1 μM) were examined.
The concentration of each compound used for the treatment was set to twice the 50% growth inhibitory concentration of each compound to the HCT116 cells (based on three days of antiproliferatrive activity using MTT). The cells were collected 24 hours after the treatment at the concentration indicated in parentheses following each compound name above. Similarly, cells cultured for 24 hours without the addition of any compound were also collected.
Total RNA extraction from the collected cells was performed using TRIZOL reagent (Invitrogen) according to the attached instruction.
Gene expression analysis using a DNA microarray was carried out in the same manner as “(2) Analysis of gene expression using DNA microarray” in Example 7.
This example was conducted for each sample in duplicate (for the convenience of the experiment, samples were given branch numbers like control-1, control-2, E7070-1, E7070-2 and so on for distinction). Then, GeneChip (Affymetrix) system (Human Focus array) was used for analyzing changes in the gene expression induced by each compound.
Twenty-six “.cel” files obtained in this example (13 samples (a control+12 compounds)×2) were subjected to RMA method (robust multi-array average method (Biostatistics (2003), 4, 249-264)) for normal distribution at probe level, and then the logarithm value of the signal intensity at gene level was calculated. Next, the logarithm value of the signal intensity of the untreated group (control-1) was subtracted from the logarithm value of the signal intensity of the compound-treated group for each gene to obtain the logarithm value of the signal ratio of the compound-treated group to control-1. Then, cosine correlation coefficients were calculated as correlation coefficients between the experiments (FIG. 5). Based on these correlation coefficients, hierarchical cluster analysis was performed according to UPGMA method (Unweighted Pair Group Method with Arithmetic mean method) (FIG. 6). Control-2 was also subjected to similar calculation (FIGS. 7 and 8). The softwares used were R 2.0.1 (http://www.r-project.org/) and affy package 1.5.8 (http://www.bioconductor.org).

[3] = tested on: human pancreas cancer cell line KP-1; experiment: subcutaneous transplant model of human pancreas cancer cell line (KP-1), E7820 and Gemcitabine; settings: KP-1 nude mouse; E7820 50 mg/kg twice a day, three weeks, oral; Gemcitabine 200 mg/kg once in three days x4, intravenous; control 14.8 ± 2.28
Procedure: Human pancreas cancer cell line KP-1 (obtained from the National Kyushu Cancer Center) was cultured in RPMI1640 (containing 10% FBS) in a 5% carbon dioxide incubator at 37° C. to about 80% confluence, and the cells were collected with trypsin-EDTA. Using a phosphate buffer, 1×10^8 cells/mL suspension was prepared, and 0.11 mL each of the resulting cell suspension was subcutaneously transplanted to a nude mouse at the side of its body. […] The major and minor axes of tumors were measured with Digimatic caliper (Mitsutoyo), and tumor volumes and relative tumor volumes were calculated according to the following formulae.
Tumor Volume TV=Major axis of tumor(mm)×(Minor axis of tumor)^2(mm^2)/2
(§1) Relative Tumor Volume RTV=Tumor volume on measurement day/Tumor volume on the first administration day

[4] = tested on: human colon cancer cell line Colo320DM; experiment: subcutaneous transplant model of human colon cancer cell line (Colo320DM), E7820 and CPT-11; settings: Colo320DM nude mouse; E7820 50 mg/kg twice a day, two weeks, oral; CPT-11 100 mg/kg once in four days x3, intravenous; control 11.99 ± 1.35
Procedure: Human colon cancer cell line Colo320DM (purchased from Dainippon Pharmaceutical) was cultured in RPMI1640 (containing 10% FBS) in a 5% carbon dioxide incubator at 37° C. to about 80% confluence, and the cells were collected with trypsin-EDTA. Using a phosphate buffer containing 50% matrigel, 7.5×10^7 cells/mL suspension was prepared, and 0.1 mL each of the resulting cell suspension was subcutaneously transplanted to a nude mouse at the side of its body. […] The major and minor axes of tumors were measured with Digimatic caliper (Mitsutoyo), and tumor volumes and relative tumor volumes were calculated according to the following formulae.
Tumor Volume TV=Major axis of tumor(mm)×(minor axis of tumor)^2(mm^2)/2
as §1

[5] = tested on: human colon cancer cell line Colo320DM; experiment: subcutaneous transplant model of human colon cancer cell line (Colo320DM), E7820 and Oxaliplatin; assay type: in vivo; settings: Colo320DM nude mouse; E7820 50 mg/kg twice a day, two weeks, oral; Oxaliplatin 10 mg/kg once in four days x3, intravenous; control 11.99 ± 1.35

Cc1ccc(NS(=O)(=O)c2cccc(C#N)c2)c2[nH]cc(C#N)c12 [E7820, N-(3-cyano-4-methyl-1H-indole-7-yl)-3-cyanobenzenesulfonamide]
amount of DNA-topoisomerase II mRNA [1]: 1.6 µg/mL
changes in gene expression (correlation coefficients, hierarchical cluster analysis) [2]: very similar genetic alterations
Relative tumor volume on Day 22 Average ± standard deviation [3]: 8.81 ± 2.57
Relative tumor volume on Day 15 Average ± standard deviation [4]: 7.05 ± 1.15
Relative tumor volume on Day 15 Average ± standard deviation [5]: 7.05 ± 1.15
